In ChEMBL document CHEMBL4251748, “Discovery of Cytochrome P450 4F11 Activated Inhibitors of Stearoyl Coenzyme A Desaturase” (J Med Chem, 2018):

Test system: NCI-H2122
Experiment: Cytotoxicity against human NCI-H2122 cells incubated for 4 days
Assay type: functional, cell-based
Conditions: NCI-H2122, 96 h

## COc1ccc(CCNC(=O)NC(=O)c2ccc(C(=O)N3CCCCC3)cc2)cc1
  EC50: 2.3 µM

## O=C(NCCc1ccccc1)C(=O)Nc1ccc(Cl)cc1
  EC50: > 50 µM

## COc1ccc(CCNC(=O)C(=O)Nc2ccc(C(=O)c3ccccc3)cc2)cc1
  EC50: 0.085 µM

## COc1ccc(CCNC(=O)NC(=O)c2ccc(C(N)c3ccccc3)cc2)cc1 (stereo not drawn)
  EC50: 0.32 µM

## COc1ccc(CCNC(=O)C(=O)Nc2ccc(C(=O)c3ccc(O)cc3)cc2)cc1
  EC50: > 50 µM

## COc1ccc(CCNC(=O)c2nc3ccccc3o2)cc1
  EC50: 30 µM

## COc1ccc(CCNC(=O)C(=O)NCc2ccc(Cl)cc2)cc1
  EC50: > 50 µM

## COc1ccc(CCNC(=O)c2nc3ccccc3c(=O)[nH]2)cc1
  EC50: > 50 µM

## O=C(NCCc1ccc(Cl)cc1)C(=O)Nc1ccc(Cl)cc1
  EC50: > 50 µM

## COc1ccc(CCNC(=O)NC(=O)c2cccc(Br)c2)cc1
  EC50: > 50 µM

## COc1ccc(CCNC(=O)C(=O)Nc2ccc(Cl)cc2)cc1OC
  EC50: > 50 µM

## COc1ccc(CCNC(=O)C(=O)Nc2cncc(Cl)c2)cc1
  EC50: 5.9 µM

## COc1ccc(CCNC(=O)C(=O)NCCc2ccc(OC)cc2)cc1
  EC50: > 50 µM

## O=C(NCCc1ccccc1O)C(=O)Nc1ccc(Cl)cc1
  EC50: 1.72 µM

## O=C(NCCc1ccc(F)cc1)C(=O)Nc1ccc(Cl)cc1
  EC50: 48 µM

## COc1ccc(CCNC(=O)C(=O)Nc2cccc(C#N)c2)cc1
  EC50: 0.41 µM

## COc1ccc(CCNC(=O)C(=O)Nc2ccccc2OC)cc1
  EC50: > 50 µM

## COc1ccc(CCNC(=O)C(=O)N2Cc3ccccc3C2)cc1
  EC50: > 50 µM

## COc1ccc(CCNC(=O)C(=O)Nc2ccc(Cl)c(F)c2)cc1
  EC50: 0.29 µM

## COc1ccc(CCNC(=O)c2nc3ccccc3[nH]2)cc1
  EC50: > 50 µM

## COc1ccc(CCNC(=O)C(=O)Nc2ccc(Br)cn2)cc1
  EC50: 0.29 µM

## COc1ccc(CCNC(=O)C(=O)O)cc1
  EC50: > 50 µM

## COc1cccc(CCNC(=O)C(=O)Nc2ccc(Cl)cc2)c1
  EC50: > 50 µM

## COc1ccc(CCNC(=O)C(=O)N2CCCCC2)cc1
  EC50: > 50 µM

## COc1ccc(CCNC(=O)C(=O)Nc2cccc(F)n2)cc1
  EC50: > 50 µM

## COc1ccc(CCNC(=O)C(=O)Nc2ccc(F)cc2)cc1
  EC50: 0.29 µM

## COc1ccc(CCNC(=O)NC(=O)c2cccc(-c3ccccc3)c2)cc1
  EC50: > 50 µM

## COc1ccc(CCNC(=O)C(=O)Nc2ccc(Cl)c(C#N)c2)cc1
  EC50: 0.4 µM

## COc1ccc(CCNC(=O)NC(=O)c2ccc(C(=O)c3ccccc3C)cc2)cc1
  EC50: 0.32 µM

## COc1ccc(CCNC(=O)C(=O)Nc2ccc(Cl)c(Cl)c2)cc1
  EC50: 0.49 µM

## CCOc1cccc(NC(=O)C(=O)NCCc2ccc(OC)cc2)c1
  EC50: 24 µM

## COc1ccc(CCN(C)C(=O)N(C)C(=O)c2ccc(C(=O)c3ccccc3)cc2)cc1
  EC50: 16 µM

## COc1ccc(CCNC(=O)C(=O)Nc2cc(F)cc(Cl)c2)cc1
  EC50: > 50 µM

## COc1ccc(CCNC(=O)C(=O)N2CCc3ccccc3C2)cc1
  EC50: > 50 µM

## COc1ccc(CCNC(=O)C(=O)N2CCc3ccccc32)cc1
  EC50: > 50 µM

## COc1ccc(CCNC(=O)C(=O)Nc2ccc(Cl)cn2)cc1
  EC50: 0.35 µM

## COc1ccc(CCNC(=O)C(=O)Nc2ccc(OC)c(C)c2)cc1
  EC50: 0.81 µM

## COC(=O)c1ccc(C(=O)NC(=O)NCCc2ccc(OC)cc2)cc1
  EC50: > 50 µM

## COc1ccc(CCNC(=O)C(=O)Nc2ccc(C(=O)c3ccc(OC)cc3)cc2)cc1
  EC50: 0.081 µM

## COc1ccc(CCNC(=O)N(C)C(=O)c2ccc(C(=O)c3ccccc3)cc2)cc1
  EC50: 6.2 µM

## COc1ccc(CCNC(=O)c2ccc3ccccc3c2O)cc1
  EC50: 36 µM

## COc1ccc(CCNC(=O)C(=O)N2CCCC2)cc1
  EC50: > 50 µM

## COc1ccc(CCNC(=O)NC(=O)c2ccc(Br)cc2)cc1
  EC50: 0.16 µM

## COc1ccc(CCNC(=O)C(=O)Nc2cnccn2)cc1
  EC50: > 50 µM

## COc1ccc(CCNC(=O)C(=O)Nc2ccc(Cl)c([N+](=O)[O-])c2)cc1
  EC50: 1.3 µM

## COc1ccc(CCNC(=O)c2ccc3cccc(O)c3n2)cc1
  EC50: 30 µM

## COc1ccc(CCNC(=O)C(=O)Nc2cccc(Cl)c2)cc1
  EC50: 0.38 µM

## COc1ccc(CCNC(=O)C(=O)Nc2ccccn2)cc1
  EC50: > 50 µM
